Read-outs that look alike come from different tables or passages of the source.
What was measured:
PRMT5 [1] = biological target: T1, PRMT5 (Homo sapiens, UniProt O14744); experiment: PRMT5 biochemical IC50 assay with SAM as cofactor
T1 construct: purchased Viva (custom protein)

PRMT5 [2] = biological target: T1, PRMT5; experiment: PRMT5 biochemical IC50 assay with no cofactor
Excerpt: Table 1 indicates IC50 values (μM) against PRMT5 for exemplary compounds in the presence of SAM as cofactor, with no cofactor, and with MTA as cofactor, respectively (columns 4-6). […] Ki values can be calculated from the IC50 values as described in the Examples section. As detailed in the Examples section, for the assay performed in the presence of SAM, IC50=Ki×1.5 (Ki=IC50/1.5).

PRMT5 [3] = biological target: T1, PRMT5; experiment: PRMT5 biochemical IC50 assay with MTA as cofactor
[4] = tested on: HAP1 MTAP-intact cell line; experiment: SDMA in-cell western assay, HAP1 MTAP-intact; assay type: cell-based; details: Homo sapiens
In short: (§1)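 MTAP-null vs endogenous-MTAP HAP1 isogenic cells; in-cell western SDMA readout; IC50 per line.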

[5] = tested on: HAP1 MTAP-deleted cell line; experiment: SDMA in-cell western assay, HAP1 MTAP-deleted; assay type: cell-based; details: for IC50: Homo sapiens; for MTAP intact/deleted ratio: IC50 ratio HAP1 MTAP-intact vs HAP1 MTAP-deleted, SDMA in-cell western
In short: as §1

[6] = tested on: HAP1 MTAP-deleted cell line; experiment: Viability assay, MTAP-deleted cell line; assay type: cell-based; details: Homo sapiens
Excerpt: Table 1 additionally indicates IC50 values in a viability assay for the MTAP-deleted cell line (column 10), indicating the effect of treatment with compound on cell survival.

[7] = PRMT5, SAM as cofactor, read-out: SAM IC50
[8] = PRMT5, no cofactor, read-out: No Cofactor/rel IC50
[9] = PRMT5, MTA as cofactor, read-out: MTA IC50
[10] = HAP1, SDMA in-cell western, HAP1 MTAP-intact, read-out: MTAP HAP1 intact IC50
[11] = HAP1, SDMA in-cell western, HAP1 MTAP-deleted, read-out: HAP1 MTAP deleted IC50
[12] = HAP1, viability assay, MTAP-deleted cell line, read-out: HAP1 MTAP deleted viability

T1 sequence (O14744 whole entry): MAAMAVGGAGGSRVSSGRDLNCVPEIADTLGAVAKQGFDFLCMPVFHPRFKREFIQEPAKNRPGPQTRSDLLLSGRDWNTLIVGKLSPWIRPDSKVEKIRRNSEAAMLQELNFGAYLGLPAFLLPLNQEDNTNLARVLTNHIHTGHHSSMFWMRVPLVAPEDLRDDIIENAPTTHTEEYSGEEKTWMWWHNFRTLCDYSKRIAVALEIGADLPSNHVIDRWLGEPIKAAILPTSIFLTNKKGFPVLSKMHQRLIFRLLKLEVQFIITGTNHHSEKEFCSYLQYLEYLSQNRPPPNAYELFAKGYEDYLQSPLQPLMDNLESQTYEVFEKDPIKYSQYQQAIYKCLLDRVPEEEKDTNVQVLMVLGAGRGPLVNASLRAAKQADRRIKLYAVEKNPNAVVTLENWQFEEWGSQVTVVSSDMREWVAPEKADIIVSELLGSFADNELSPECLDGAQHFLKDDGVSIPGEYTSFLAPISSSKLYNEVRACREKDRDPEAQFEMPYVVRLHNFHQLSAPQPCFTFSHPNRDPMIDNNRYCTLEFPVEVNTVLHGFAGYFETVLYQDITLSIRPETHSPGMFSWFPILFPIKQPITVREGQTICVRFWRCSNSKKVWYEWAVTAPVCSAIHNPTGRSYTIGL
T1 sequence (Q9BQA1 whole entry partner): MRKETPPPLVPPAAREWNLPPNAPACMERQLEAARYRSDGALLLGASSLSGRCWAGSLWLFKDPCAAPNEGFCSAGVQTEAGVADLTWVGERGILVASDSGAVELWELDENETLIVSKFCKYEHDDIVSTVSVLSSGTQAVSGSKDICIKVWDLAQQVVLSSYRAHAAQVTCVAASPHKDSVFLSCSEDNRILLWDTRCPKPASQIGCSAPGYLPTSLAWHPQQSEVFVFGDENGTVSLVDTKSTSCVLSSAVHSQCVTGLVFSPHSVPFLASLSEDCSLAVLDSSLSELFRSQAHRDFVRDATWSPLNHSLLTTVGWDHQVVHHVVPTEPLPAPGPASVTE

Row | SMILES | IC50 (PRMT5 [1]; [7]) [nM] | IC50 (PRMT5 [2]; [8]) [nM] | IC50 (PRMT5 [3]; [9]) [nM] | IC50 [4, 10] [nM] | IC50 [5, 11] [nM] | MTAP intact/deleted ratio [5] | IC50 [6, 12] [nM] | IC50 (PRMT5 [1]; SAM IC50, PRMT5, SAM as cofactor) [nM] | IC50 (PRMT5 [2]; No Cofactor/rel IC50, PRMT5, no cofactor) [nM] | IC50 (PRMT5 [3]; MTA IC50, PRMT5, MTA as cofactor) [nM] | IC50 ([4]; HAP1, read-out: MTAP HAP1 intact IC50) [nM] | IC50 ([5]; HAP1, read-out: HAP1 MTAP deleted IC50) [nM] | IC50 ([6]; HAP1, read-out: HAP1 MTAP deleted viability) [nM]
1 | CCc1cc(NC(=O)C(=O)N2C[C@@H](C)CC[C@@H]2c2ccc3sc([C@@H]4CN(C)CCO4)nc3c2)cnc1N [Compound 1134, N-(6-amino-5-ethyl-3-pyridyl)-2-oxo-2-[(2R,5S)-5-methyl-2-[2-[(2S)-4-methylmorpholin-2-yl]-1,3-benzothiazol-5-yl]-1-piperidyl]acetamide] | 50 to 500 | < 50 | < 50 | < 100 | < 100 | A (an IC50 ratio greater than or equal to 10 fold) | < 1000 |  |  |  |  |  | 
2 | CCc1cc(NC(=O)C(=O)N2C[C@@H](C)CC[C@@H]2c2ccc3sc(CO)nc3c2)cnc1N [Compound 1152, N-(6-amino-5-ethylpyridin-3-yl)-2-((2R,5S)-2-(2-(hydroxymethyl)benzo[d]thiazol-5-yl)-5-methylpiperidin-1-yl)-2-oxoacetamide] | 50 to 500 | < 50 | < 50 | 100 to 1000 | < 100 | A (an IC50 ratio greater than or equal to 10 fold) | < 1000 |  |  |  |  |  | 
3 | COc1ncc(NC(=O)C(=O)N2C[C@@H](C)CC[C@@H]2c2ccc3sc(CN(C)C)nc3c2)cc1C(N)=O [Compound 1162, 5-(2-((2R,5S)-2-(2-((dimethylamino)methyl)benzo[d]thiazol-5-yl)-5-methylpiperidin-1-yl)-2-oxoacetamido)-2-methoxynicotinamide] | 50 to 500 | < 50 | < 50 | 100 to 1000 | < 100 | A (an IC50 ratio greater than or equal to 10 fold) | < 1000 |  |  |  |  |  | 
4 | CCc1cc(NC(=O)C(=O)N2C[C@@H](C)CC[C@@H]2c2ccc3sc(C4(CN(C)C)COC4)nc3c2)cnc1N [Compound 1165, N-(6-amino-5-ethylpyridin-3-yl)-2-((2R,5S)-2-(2-(3-((dimethylamino)methyl)oxetan-3-yl)benzo[d]thiazol-5-yl)-5-methylpiperidin-1-yl)-2-oxoacetamide] | 50 to 500 | < 50 | < 50 | < 100 | < 100 | B (an IC50 ratio greater than or equal to 3 fold but lower than 10 fold) | < 1000 |  |  |  |  |  | 
5 | CCc1cc(NC(=O)C(=O)N2C[C@@H](C)CC[C@@H]2c2ccc3sc(C4(C)CCN(C)CC4)nc3c2)cnc1N [Compound 1171, N-(6-amino-5-ethylpyridin-3-yl)-2-((2R,5S)-2-(2-(1,4-dimethylpiperidin-4-yl)benzo[d]thiazol-5-yl)-5-methylpiperidin-1-yl)-2-oxoacetamide] |  |  |  |  |  | A (an IC50 ratio greater than or equal to 10 fold) |  | < 50 | < 50 | < 50 | < 100 | < 100 | < 1000
6 | CCc1cc(NC(=O)C(=O)N2C[C@@H](C)CC[C@@H]2c2ccc3sc(C4CCN(CCF)CC4)nc3c2)cnc1N [Compound 1174, N-(6-amino-5-ethylpyridin-3-yl)-2-((2R,5S)-2-(2-(1-(2-fluoroethyl)piperidin-4-yl)benzo[d]thiazol-5-yl)-5-methylpiperidin-1-yl)-2-oxoacetamide] | < 50 | < 50 | < 50 | < 100 | < 100 | A (an IC50 ratio greater than or equal to 10 fold) | < 1000 |  |  |  |  |  | 

Now from value to molecule, other results behind:

Row | IC50 (PRMT5 [1]; [7]) [nM] | IC50 (PRMT5 [2]; [8]) [nM] | IC50 (PRMT5 [3]; [9]) [nM] | IC50 [4, 10] [nM] | IC50 [5, 11] [nM] | SMILES | MTAP intact/deleted ratio [5] | IC50 [6, 12] [nM] | IC50 (PRMT5 [1]; SAM IC50, PRMT5, SAM as cofactor) [nM] | IC50 (PRMT5 [2]; No Cofactor/rel IC50, PRMT5, no cofactor) [nM] | IC50 (PRMT5 [3]; MTA IC50, PRMT5, MTA as cofactor) [nM] | IC50 ([4]; HAP1, read-out: MTAP HAP1 intact IC50) [nM] | IC50 ([5]; HAP1, read-out: HAP1 MTAP deleted IC50) [nM] | IC50 ([6]; HAP1, read-out: HAP1 MTAP deleted viability) [nM]
7 | < 50 | < 50 | < 50 | < 100 | < 100 | CCc1cc(NC(=O)C(=O)N2C[C@@H](C)CC[C@@H]2c2ccc3sc([C@H]4CCN(C)C(C)(C)C4)nc3c2)cnc1N [Compound 1125, N-(6-amino-5-ethylpyridin-3-yl)-2-((2R,5S)-5-methyl-2-(2-(1,2,2-trimethylpiperidin-4-yl)benzo[d]thiazol-5-yl)piperidin-1-yl)-2-oxoacetamide] | A (an IC50 ratio greater than or equal to 10 fold) | < 1000 |  |  |  |  |  | 
8 | < 50 | < 50 | < 50 | < 100 | < 100 | Cc1cc(NC(=O)C(=O)N2C[C@@H](C)CC[C@@H]2c2ccc3sc(C4CCN(C)CC4)nc3c2)cnc1C [Compound 1137, N-(5,6-dimethylpyridin-3-yl)-2-((2R,5S)-5-methyl-2-(2-(1-methylpiperidin-4-yl)benzo[d]thiazol-5-yl)piperidin-1-yl)-2-oxoacetamide] | A (an IC50 ratio greater than or equal to 10 fold) | < 1000 |  |  |  |  |  | 
9 | < 50 | < 50 | < 50 | < 100 | < 100 | CCc1cc(NC(=O)C(=O)N2C[C@@H](C)CC[C@@H]2c2ccc3sc([C@@H]4C[C@H]5CN(C)C[C@H]54)nc3c2)cnc1N [Compound 1147, N-(6-amino-5-ethylpyridin-3-yl)-2-((5S)-5-methyl-2-(2-(3-methyl-3-azabicyclo[3.2.0]heptan-6-yl)benzo[d]thiazol-5-yl)piperidin-1-yl)-2-oxoacetamide] | A (an IC50 ratio greater than or equal to 10 fold) | < 1000 |  |  |  |  |  | 
10 | < 50 | < 50 | < 50 | < 100 | < 100 | CCc1cc(NC(=O)C(=O)N2C[C@@H](C)CC[C@@H]2c2ccc3sc(C4CN(C)C4)nc3c2)cnc1N [Compound 1151, N-(6-amino-5-ethylpyridin-3-yl)-2-((2R,5S)-5-methyl-2-(2-(1-methylazetidin-3-yl)benzo[d]thiazol-5-yl)piperidin-1-yl)-2-oxoacetamide] | A (an IC50 ratio greater than or equal to 10 fold) | < 1000 |  |  |  |  |  | 
11 | < 50 | < 50 | < 50 | 100 to 1000 | < 100 | COc1ncc(NC(=O)C(=O)N2C[C@@H](C)CC[C@@H]2c2ccc3sc(C4(CN(C)C)COC4)nc3c2)cc1C(N)=O [Compound 1155, 5-(2-((2R,5S)-2-(2-(3-((dimethylamino)methyl)oxetan-3-yl)benzo[d]thiazol-5-yl)-5-methylpiperidin-1-yl)-2-oxoacetamido)-2-methoxynicotinamide] | A (an IC50 ratio greater than or equal to 10 fold) | < 1000 |  |  |  |  |  | 
12 | < 50 | < 50 | < 50 | < 100 | < 100 | CCc1cc(NC(=O)C(=O)N2C[C@@H](C)CC[C@@H]2c2ccc3sc(C4(F)CCN(C)CC4)nc3c2)cnc1N [Compound 1160, N-(6-amino-5-ethylpyridin-3-yl)-2-((2R,5S)-2-(2-(4-fluoro-1-methylpiperidin-4-yl)benzo[d]thiazol-5-yl)-5-methylpiperidin-1-yl)-2-oxoacetamide] | A (an IC50 ratio greater than or equal to 10 fold) | < 1000 |  |  |  |  |  | 
13 | < 50 | < 50 | < 50 | 100 to 1000 | < 100 | CCN1CCC(c2nc3cc([C@H]4CC[C@H](C)CN4C(=O)C(=O)Nc4cnc(OC)c(C(N)=O)c4)ccc3s2)CC1 [Compound 1164, 5-(2-((2R,5)-2-(2-(1-ethylpiperidin-4-yl)benzo[d]thiazol-5-yl)-5-methylpiperidin-1-yl)-2-oxoacetamido)-2-methoxynicotinamide] | A (an IC50 ratio greater than or equal to 10 fold) | < 1000 |  |  |  |  |  | 

Source: US11999727B2 (Tango Therapeutics, Inc., priority 2020, dated 2024)
